Test results published in PMC7037732, “Synthesis of Combretastatin A-4 and 3′-Aminocombretastatin A-4 derivatives with Aminoacid Containing Pendants and Study of their Interaction with Tubulin and as Downregulators of the VEGF, hTERT and c-Myc Gene Expression” (Molecules, 2020).

Key:
[1] = tested on: HT-29 (human colon adenocarcinoma); experiment: Inhibition of cell proliferation (MTT), HT-29; assay type: cell-based; settings: Homo sapiens, 48 h of treatment (footnote), average ±SD of three experiments
purified tubulin = experiment: Critical concentration (CrC) for the assembly of purified tubulin in GAB; assay type: biochemical; settings: compound 27.5 μM, tubulin 25 μM, glycerol (GAB) and GTP assembly buffer; control 7.9 ± 1.2
Protocol: The effect on the self-assembly of tubulin was determined by measuring the critical concentration (CrC).

[2] = tested on: MCF-7 (breast adenocarcinoma); experiment: Inhibition of cell proliferation (MTT), MCF-7; assay type: cell-based, human; settings: Homo sapiens, 48 h of treatment (footnote), average ±SD of three experiments
[3] = tested on: A-549 (human pulmonary adenocarcinoma); experiment: Inhibition of cell proliferation (MTT), A-549; assay type: cell-based; settings: 48 h of treatment (footnote), average ±SD of three experiments
How it was run: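 Antiproliferative activity against A-549 human pulmonary adenocarcinoma cells was measured by MTT assay. Cells were seeded at 25,000/mL in 96-well plates, cultured 24 h, then exposed to compounds at various concentrations. MTT (20 µL, 5 mg·mL^−1) was added for 2 h at 37 °C, formazan dissolved in 200 µL DMSO, and absorbance read at 540 nm. IC50 values came graphically from three independent experiments.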

[4] = tested on: HEK-293 (human embryonic kidney cells); experiment: Inhibition of cell proliferation (MTT), nontumor HEK-293; assay type: cell-based; settings: Homo sapiens, 48 h of treatment (footnote), average ±SD of three experiments
A-549 cells [5] = experiment: Effect on the cellular microtubule network (immunofluorescence); assay type: cell-based, human
Protocol: The effect on the cellular microtubule network of CA-4 derivatives was studied for compounds 1, 3.7 (L-Thr-OMe), 3.8 (L-Tyr-OMe), 4.2 (L-Val) and 4.3 (L-Leu), which were those accumulating more cells in the G2/M phase. Thus, A-549 cells were incubated for 24 h in the presence of the above compounds and CA-4 at the concentrations indicated in Figure 4.
The effect of some derivatives on the cellular microtubule network were also studied on A-549 cells. The selected compounds were 7.1 (Fmoc-Gly) (0.5 μM), 8.1 (Gly) (2 μM), 8.2 (L-Ala) (3 μM) and 10.1 (D-Val) (40 μM), which were those exerting a higher effect on the cell cycle.
For immunofluorescence microscopy of the microtubule network, 10^6 cells were plated on cover glass and incubated with the different drugs. Cells were then fixed in 3.7% formaldehyde (in PBS pH 7.4) for 20 min at room temperature and permeabilized with PBS-Triton X-100 0.5% for 10 min at room temperature. Direct immunostaining was carried out for 2 h at room temperature with a primary FITC-conjugated anti-α-tubulin antibody (dilution 1:400 in PBS-BSA 1% from a 1 mg/mL solution; monoclonal antibody, clone DM1A; Sigma-Aldrich, Darmstadt, Germany.). Next, cells were incubated for 45 min at room temperature in darkness with secondary Alexa Fluor 488-conjugated antibodies (dilution 1:200 each from 1.5 mg/mL; Molecular Probe, France). Then, cells were washed in PBS and cover glasses were mounted with a drop of ProLong® antifade solution (Invitrogen). The cytoskeleton was imaged by a confocal laser scanning microscope (CLSM) Leica SP5 with a Leica inverted microscope, equipped with a Plan-Apochromat 63× oil immersion objective (NA = 1.4). Each image was recorded with the CLSM’s spectral mode selecting specific domains of the emission spectrum. The FITC fluorophore was excited at 488 nm with an argon laser, and its fluorescence emission was collected between 496 nm and 535 nm.

A-549 cells [6] = experiment: Cell cycle distribution by flow cytometry; assay type: cell-based, human; settings: A-549, 24 h; for cells accumulated in the G2/M phase: concentration per compound as in Tables 6 and 7, control 14%
How it was run: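 A-549 cells were harvested, fixed in cold 70% ethanol (30 min, −20 °C), then stained with 50 µg/mL propidium iodide plus 100 µg/mL RNase A in PBS for 20 min at room temperature in the dark. Flow cytometry used 488 nm excitation and 620 nm emission, giving the percentage of cells in G2/M.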

hTERT gene = hTERT gene expression by RT-qPCR in HT-29 cells; assay type: cell-based, human; settings: Homo sapiens, HT-29, 48 h, 7 nM, control 100
Protocol: (§1) The effect on the expression of VEGF, hTERT and c-Myc genes has been studied for CA-4 and its derivatives that show selectivity indexes higher than 0.9 on the HT-29 cell line. The studied derivatives, together with the concentrations to which they have been tested, are CA-4 (15 μM); 4.1 (Gly, 5 μM); 4.5 (L-Pro, 25 μM); 4.9 (L-Met, 25 μM); 6.2 (D-Leu, 25 μM); 6.3 (D-Phe, 25 μM); 6.4 (D-Pro, 25 μM) and 6.5 (D-Ser, 10 μM). The expression of the genes was determined by RT-qPCR methodology, as described in the Materials and Methods section.
(§2) As regards AmCA-4 derivatives, the effect on the expression of the VEGF, hTERT and c-Myc genes has been studied on those that show IC50 in the low nanomolar range on the HT-29 cell line and/or on compounds whose selectivity indexes with respect to this cell line are higher than 1. The studied compounds, together with the concentrations to which they have been tested, are: CA-4 (15 μM), AmCA-4 (15 nM), 7.1 (7 nM), 7.2 (1.5 nM), 7.3 (4 nM), 7.4 (15 nM), 7.5 (2 nM), 7.7 (7 nM), 7.8 (15 nM), 7.9 (30 nM), 8.1 (7 nM), 8.2 (3 nM), 8.3 (10 nM), 8.4 (1.5 nM), 8.5 (4 nM), 8.7 (7 nM), 8.8 (3 nM) and 8.9 (4 nM).
(§3) HT-29 cells at 70–80% confluence were collected, and 1.5 × 10^5 cells were placed in a six-well plate in 1.5 mL of the medium. After 24 h, cells were incubated with the corresponding compounds for 48 h. Cells were collected, and the total cellular RNA from the HT-29 cells was isolated using an Ambion RNA Extraction Kit, according to the manufacturer’s instructions. The cDNA was synthesized by MMLV-RT with […] of extracted RNA and oligo(dT)15, according to the manufacturer’s instructions. Genes were amplified by a thermal cycler and StepOnePlus™ TaqMan® probes. TaqMan® Gene Expression Master Mix Fast, containing the appropriate buffer for the amplification conditions, dNTPs, thermostable DNA polymerase enzyme and a passive reference probe, was used. To amplify each of the genes, the predesigned primers sold by Life Technologies TaqMan® Gene Expression Assays Hs99999903-m1 (β-actin), Hs00900055-m1 (VEGF), Hs00972646-m1 (hTERT) and Hs00153408-m1 (c-Myc) were used.

tubulin = experiment: In vitro tubulin polymerization by turbidimetry (It50); assay type: biochemical; settings: turbidimetry at 350 nm, 37 °C; control 16.6 ± 1.0
Protocol: Figure 3 also includes polymerization curves in the presence of CA-4, AmCA-4 and paclitaxel. This test was also performed using paclitaxel, a microtubule stabilizing agent, as a control for the complete formation of microtubules (see Figure 3).

VEGF gene = VEGF gene expression by RT-qPCR in HT-29 cells; assay type: cell-based, human; settings: Homo sapiens, HT-29, 48 h, 7 nM, control 100
Protocol: as §1, §2, §3

c-Myc gene = c-Myc gene expression by RT-qPCR in HT-29 cells; assay type: cell-based, human; settings: Homo sapiens, HT-29, 48 h, 7 nM, control 100
Protocol: as §1, §2, §3

[7] = Homo sapiens, A549, 48 h, Table 1
[8] = Homo sapiens, A549, 48 h, Table 2

Row | SMILES | CrC (critical concentration) (purified tubulin) [µM] | IC50 [3, 7] [µM] | Effect on the microtubule network (A-549 cells [5]; A-549, 24 h, 50 μM) | IC50 ([1]; HT-29, 48 h, Table 1) [µM] | IC50 ([2]; MCF7, 48 h, Table 1) [µM] | G0/G1 (A-549 cells [6]; 75 μM) [%] | G2/M (A-549 cells [6]; 75 μM) [%] | S (A-549 cells [6]; 75 μM) [%] | cells accumulated in the G2/M phase (A-549 cells [6]) | IC50 ([4]; HEK293, 48 h, Table 1) [µM] | IC50 ([1]; HT-29, 48 h, Table 2) [µM] | IC50 ([2]; MCF7, 48 h, Table 2) [µM] | IC50 [3, 8] [µM] | It50 (time required to reach 50% of the polymerization) (tubulin) [min] | IC50 ([4]; HEK293, 48 h, Table 2) [µM] | further results
1 | COc1ccc(/C=C\c2cc(OC)c(OC)c(OC)c2)cc1OCC(=O)N[C@@H](Cc1ccccc1)C(=O)O [Compound 4.4] | 11.4 ± 0.7 | 100 ± 20 | produce disorganization in the mitotic spindle |  |  |  |  |  |  |  |  |  |  |  |  | IC50 ([1]; HT-29, Table 1): 54 ± 9 µM; IC50 ([2]; MCF7, Table 1): 45 ± 4 µM; IC50 ([4]; HEK293, Table 1): 47 ± 3 µM
2 | COc1ccc(/C=C\c2cc(OC)c(OC)c(OC)c2)cc1OCC(=O)N[C@@H](CC(C)C)C(=O)O [Compound 4.3] | 8 ± 3 | 14 ± 2 | produce disorganization in the mitotic spindle | 15 ± 5 | 16 ± 6 | 22 ± 6 | 63 ± 5 | 15 ± 2 | 50–70% | 9 ± 2 |  |  |  |  |  | 
3 | COc1ccc(/C=C\c2cc(OC)c(OC)c(OC)c2)cc1NC(=O)[C@@H](NC(=O)OCC1c2ccccc2-c2ccccc21)C(C)O (some centres unmarked) [Compound 7.7] | 12.0 ± 0.3 |  |  |  |  |  |  |  |  |  | 0.009 ± 0.003 | 0.025 ± 0.012 | 0.422 ± 0.008 | 19.2 ± 0.3 | 0.013 ± 0.002 | mrna remaining at 0.007 µM (hTERT gene): < 70%; mrna remaining at 0.007 µM (VEGF gene): 37%; mrna remaining at 0.007 µM (c-Myc gene): 56%
4 | COc1ccc(/C=C\c2cc(OC)c(OC)c(OC)c2)cc1NC(=O)[C@H](N)C(C)C [Compound 10.1] | 12.8 ± 0.3 |  |  |  |  |  |  |  |  |  | 4.8 ± 0.6 | 4.7 ± 0.7 | 9.9 ± 1.3 | 17.1 ± 1.3 | 2.4 ± 0.3 | G0/G1 (A-549 cells [6]; 40 µM): 26 ± 2%; G2/M (A-549 cells [6]; 40 µM): 60 ± 1%; S (A-549 cells [6]; 40 µM): 14 ± 1%; Effect on the microtubule network (A-549 cells [5]; A-549, 0.5 μM): much less active; Effect on the microtubule network (A-549 cells [5]; A-549, 40 μM): almost total depolymerization of the microtubule network
5 | COC(=O)[C@H](Cc1ccc(O)cc1)NC(=O)COc1cc(/C=C\c2cc(OC)c(OC)c(OC)c2)ccc1OC [Compound 3.8] |  | 18 ± 1 |  | 16 ± 5 | 12 ± 4 | 17 ± 2 | 65 ± 1 | 18 ± 1 | 50–70% | 10 ± 2 |  |  |  |  |  | Effect on the microtubule network (A-549 cells [5]; A-549, 24 h, 75 μM): produce disorganization in the mitotic spindle
6 | COc1ccc(/C=C\c2cc(OC)c(OC)c(OC)c2)cc1NC(=O)[C@H]1CCCN1C(=O)OCC1c2ccccc2-c2ccccc21 [Compound 9.4] | 11.4 ± 0.2 |  |  |  |  |  |  |  |  |  | 5.3 ± 0.3 | 5.3 ± 1.1 | 12.8 ± 0.8 | 16.5 ± 0.3 | 3.1 ± 1.1 | 
7 | COC(=O)[C@@H](NC(=O)COc1cc(/C=C\c2cc(OC)c(OC)c(OC)c2)ccc1OC)C(C)O (some centres unmarked) [Compound 3.7] | 10 ± 3 | 19 ± 1 |  | 18 ± 7 | 12 ± 4 | 25 ± 5 | 57 ± 6 | 18 ± 1 | 50–70% | 14 ± 2 |  |  |  |  |  | Effect on the microtubule network (A-549 cells [5]; A-549, 24 h, 75 μM): produce disorganization in the mitotic spindle
8 | CCOC(=O)COc1cc(/C=C\c2cc(OC)c(OC)c(OC)c2)ccc1OC [Compound 1, Ethyl (Z)-2-(2-methoxy-5-(3,4,5-trimethoxystyryl)phenoxy)acetate] |  | < 10 | produce disorganization in the mitotic spindle | 7 ± 4 | 8 ± 4 |  |  |  | 50–70% | 3.6 ± 0.5 |  |  |  |  |  | G0/G1 (A-549 cells [6]; 50 μM): 23 ± 5%; G2/M (A-549 cells [6]; 50 μM): 55 ± 8%; S (A-549 cells [6]; 50 μM): 22 ± 4%; IC50 ([3]; Table 1): 9 ± 1 µM
